# Experimental data taken from the supplement of paper PMC10307832.
# Legend:
# Assay in all cases: relative viability (nuclei count vs DMSO), 5 days (fraction); higher = more cells survive
# [1] = compound: OCc1c[nH]c2ccccc12 [Indole-3-carbinol] + CC(=O)c1c(C)c2cnc(Nc3ccc(N4CCNCC4)cn3)nc2n(C2CCCC2)c1=O [Palbociclib] (partner 0.5 µM)
# Procedure, shortened: (§1)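 Lung cancer cell lines were pin-tool dosed in 1536-well plates on the day after seeding, with either a lone drug or a fixed anchor-drug dose plus five library-drug doses (not always all listed) in √10 steps. Nuclei were counted on 4× images after 5 days. Relative viability is the ratio of treated-well to vehicle-well nuclei counts, with each value a median of duplicate plates.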
# [2] = compound: OCc1c[nH]c2ccccc12 [Indole-3-carbinol] + Cc1cc(Nc2cc(N3CCN(C)CC3)nc(Sc3ccc(NC(=O)C4CC4)cc3)n2)n[nH]1 [Tozasertib] (partner 0.1 µM)
# Procedure, shortened: as §1
# [3] = compound: OCc1c[nH]c2ccccc12 [Indole-3-carbinol] + Cc1nc(Nc2ncc(C(=O)Nc3c(C)cccc3Cl)s2)cc(N2CCN(CCO)CC2)n1 [Dasatinib] (partner 0.075 µM)
# Procedure, shortened: as §1
# [4] = compound: OCc1c[nH]c2ccccc12 [Indole-3-carbinol] + CC(=O)Nc1cccc(-n2c(=O)n(C3CC3)c(=O)c3c(Nc4ccc(I)cc4F)n(C)c(=O)c(C)c32)c1 [Trametinib] (partner 0.02 µM)
# Procedure, shortened: as §1
# [5] = compound: OCc1c[nH]c2ccccc12 [Indole-3-carbinol] + NC(=O)Nc1cc(-c2cccc(F)c2)sc1C(=O)N[C@H]1CCCNC1 [AZD7762] (partner 0.2 µM)
# Procedure, shortened: as §1
Cell Line,relative viability ([1]; first compound 0.253 µM),relative viability ([1]; first compound 0.8 µM),relative viability ([1]; first compound 2.53 µM),relative viability ([1]; first compound 8 µM),relative viability ([2]; first compound 0.253 µM),relative viability ([2]; first compound 0.8 µM),relative viability ([2]; first compound 2.53 µM),relative viability ([2]; first compound 8 µM),relative viability ([3]; first compound 0.253 µM),relative viability ([3]; first compound 0.8 µM),relative viability ([3]; first compound 2.53 µM),relative viability ([3]; first compound 8 µM),relative viability ([4]; first compound 0.253 µM),relative viability ([4]; first compound 0.8 µM),relative viability ([4]; first compound 2.53 µM),relative viability ([4]; first compound 8 µM),relative viability ([5]; first compound 0.253 µM),relative viability ([5]; first compound 0.8 µM),relative viability ([5]; first compound 2.53 µM),relative viability ([5]; first compound 8 µM)
201T,0.357,0.396,0.356,0.34,0.958,0.978,1.02,0.969,0.556,0.635,0.566,0.554,0.704,0.705,0.697,0.692,0.623,0.591,0.614,0.725
NCI-H3122,0.188,0.196,0.176,0.183,0.398,0.383,0.483,0.372,0.839,0.771,0.969,0.851,0.229,0.255,0.234,0.248,1.1,1,1.07,0.899
NCI-H727,0.634,0.669,0.699,0.648,0.512,0.73,0.599,0.554,0.365,0.408,0.294,0.306,0.372,0.393,0.412,0.392,0.664,0.834,0.579,0.551
NCI-H441,0.202,0.267,0.249,0.185,0.551,0.782,0.702,0.595,0.606,0.598,0.711,0.643,0.59,0.547,0.469,0.475,1.34,1.23,1.27,1.15
HOP-62,0.444,0.457,0.451,0.426,0.365,0.432,0.391,0.332,0.701,0.693,0.719,0.651,0.348,0.373,0.358,0.32,0.65,0.61,0.631,0.607
RERF-LC-KJ,1.14,0.968,0.941,1.15,0.441,0.518,0.546,0.509,0.815,0.842,0.846,0.762,0.812,0.904,0.943,0.825,1.07,1.01,0.962,0.885
LCLC-103H,0.492,0.48,0.451,0.405,0.499,0.554,0.538,0.433,0.416,0.489,0.428,0.441,0.701,0.614,0.651,0.571,0.802,0.786,0.86,0.81
NCI-H1915,0.5,0.521,0.532,0.486,0.409,0.459,0.449,0.464,0.285,0.311,0.328,0.291,0.282,0.294,0.342,0.296,0.655,0.625,0.767,0.737
